17 compounds from BindingDB's records for doi:10.1016/0968-0896(96)00075-2 (Sapienza University of Rome, 1996) can be followed below.

Molecules are shown by their SMILES. A value given as a limit tells only on which side of the number the result lay.

This assay addresses T1, Gag-Pol polyprotein [588-1027]/[588-1147] (Human immunodeficiency virus 1, UniProt P04585).
T1 construct: 588-1027; 588-1147
Kind of assay: HIV-1 RT Assay. As to conditions: pH 7.8; 37 °C.
In general, IC50 refers to the concentration at which inhibition is half-maximal. The low end stands for higher potency, the high end for lower potency. `O=C1Nc2ccccc2S(=O)(=O)n2cccc21` [2-thia-3,9-diazatricyclo[8.4.0.0^{3,7}]tetradeca-1(10),4,6,11,13-pentaene-2,2,8-trione] showed a half-maximal inhibitory concentration (IC50) of 4 µM. As for `O=C1Nc2ccccc2Sn2cccc21` [5H-Pyrrolo [1,2-b] [1,2,5] benzothiadiazepin-11 (10H) -one], the figure is over 100 µM; as for `Cn1c2ccccc2n2c(c3cccn31)=C(O)N(CCN1CCOCC1)CC2=O` [7-methyl-17-[2-(morpholin-4-yl)ethyl]-6,7,14,17-tetraazatetracyclo[12.4.0.0^{2,6}.0^{8,13}]octadeca-2,4,8(13),9,11-pentaene-15,18-dione], 6.3 µM.

Consider `Cn1c2ccccc2n2c(c3cccn31)=C(O)N(CCN1CCCCC1)CC2=O` [7-methyl-17-[2-(piperidin-1-yl)ethyl]-6,7,14,17-tetraazatetracyclo[12.4.0.0^{2,6}.0^{8,13}]octadeca-2,4,8(13),9,11-pentaene-15,18-dione], for which the IC50 was over 100 µM. As for `C=CCN1C(=O)c2cccn2S(=O)(=O)c2ccccc21` [9-(prop-2-en-1-yl)-2-thia-3,9-diazatricyclo[8.4.0.0^{3,7}]tetradeca-1(10),4,6,11,13-pentaene-2,2,8-trione], the figure is 9.5 µM; as for `CC(C)N1C(=O)c2cccn2S(=O)(=O)c2ccccc21` [9-(propan-2-yl)-2-thia-3,9-diazatricyclo[8.4.0.0^{3,7}]tetradeca-1(10),4,6,11,13-pentaene-2,2,8-trione], 6.3 µM; as for `C/C=C/CN1C(=O)c2cccn2S(=O)(=O)c2ccccc21` [9-[(2E)-but-2-en-1-yl]-2-thia-3,9-diazatricyclo[8.4.0.0^{3,7}]tetradeca-1(10),4,6,11,13-pentaene-2,2,8-trione], 21 µM. `C/C=C\CN1C(=O)c2cccn2S(=O)(=O)c2cc(Cl)ccc21` [9-[(2Z)-but-2-en-1-yl]-13-chloro-2-thia-3,9-diazatricyclo[8.4.0.0^{3,7}]tetradeca-1(10),4,6,11,13-pentaene-2,2,8-trione] registered an IC50 of 3.1 µM. As for `CCN1C(=O)c2cccn2S(=O)(=O)c2ccccc21` [9-ethyl-2-thia-3,9-diazatricyclo[8.4.0.0^{3,7}]tetradeca-1(10),4,6,11,13-pentaene-2,2,8-trione], the figure is 10 µM. The result for `CCCN1C(=O)c2cccn2S(=O)(=O)c2ccccc21` [9-propyl-2-thia-3,9-diazatricyclo[8.4.0.0^{3,7}]tetradeca-1(10),4,6,11,13-pentaene-2,2,8-trione] reads 24 µM; that for `CN1C(=O)c2cccn2S(=O)(=O)c2ccccc21` [10-methyi-5H-pyrrolo1,2-b] [1,2,5] benzothiadiazepin-11(10H)-one-5,5-dioxide], 11 µM. Compound `O=C1Nc2ccc(Cl)cc2S(=O)(=O)n2cccc21` [13-chloro-2-thia-3,9-diazatricyclo[8.4.0.0^{3,7}]tetradeca-1(10),4,6,11,13-pentaene-2,2,8-trione] displayed a half-maximal inhibitory concentration (IC50) of 0.7 µM. `C=CCN1C(=O)c2cccn2S(=O)(=O)c2cc(Cl)ccc21` [13-chloro-9-(prop-2-en-1-yl)-2-thia-3,9-diazatricyclo[8.4.0.0^{3,7}]tetradeca-1(10),4,6,11,13-pentaene-2,2,8-trione] displayed an IC50 of 2.9 µM. Consider `CCN1C(=O)c2cccn2S(=O)(=O)c2cc(Cl)ccc21` [13-chloro-9-ethyl-2-thia-3,9-diazatricyclo[8.4.0.0^{3,7}]tetradeca-1(10),4,6,11,13-pentaene-2,2,8-trione], for which the IC50 is 2.7 µM. The result for `CN1C(=O)c2cccn2S(=O)(=O)c2cc(Cl)ccc21` [13-chloro-9-methyl-2-thia-3,9-diazatricyclo[8.4.0.0^{3,7}]tetradeca-1(10),4,6,11,13-pentaene-2,2,8-trione] reads 0.5 µM; that for `CN(C)CCCN1CC(=O)n2c(c3cccn3n(C)c3ccccc32)=C1O` [17-[3-(dimethylamino)propyl]-7-methyl-6,7,14,17-tetraazatetracyclo[12.4.0.0^{2,6}.0^{8,13}]octadeca-2,4,8(13),9,11-pentaene-15,18-dione], 24 µM; that for `CCOC(=O)CN1C(=O)c2cccn2S(=O)(=O)c2ccccc21` [ethyl 2-(2,2,8-trioxo-2-thia-3,9-diazatricyclo[8.4.0.0^{3,7}]tetradeca-1(10),4,6,11,13-pentaen-9-yl)acetate], 31 µM.
